Experiments:
Experiment in all cases: cells
[1] = tested on: COLO-829; type: functional, cell-based, Homo sapiens; settings: Homo sapiens, COLO-829
Description: SANGER: Inhibition of human COLO-829 cell growth in a cell viability assay.

[2] = tested on: CP66-MEL; type: functional, cell-based, Homo sapiens; settings: Homo sapiens, CP66-MEL;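 further: growth inhibition of CP66-MEL cells determined in a cell viability assay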
Description: SANGER: Inhibition of human CP66-MEL cell growth in a cell viability assay.

[3] = tested on: D-502MG; type: functional, cell-based, Homo sapiens; settings: Homo sapiens, D-502MG
Description: SANGER: Inhibition of human D-502MG cell growth in a cell viability assay.

[4] = tested on: DOHH-2; type: functional, cell-based, Homo sapiens; settings: Homo sapiens, DOHH-2;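 further: growth inhibition of human DOHH-2 cells, read out with a cell viability assay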
Description: SANGER: Inhibition of human DOHH-2 cell growth in a cell viability assay.

[5] = tested on: EM-2; type: functional, cell-based, Homo sapiens; settings: Homo sapiens, EM-2;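 further: growth inhibition of EM-2 cells, read out with a cell viability assay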
Description: SANGER: Inhibition of human EM-2 cell growth in a cell viability assay.

[6] = tested on: ES1; type: functional, cell-based, Homo sapiens; settings: Homo sapiens, ES1;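 further: growth inhibition of ES1 cells, read out with a cell viability assay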
Description: SANGER: Inhibition of human ES1 cell growth in a cell viability assay.

[7] = tested on: ES7; type: functional, cell-based, Homo sapiens; settings: Homo sapiens, ES7;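 further: growth inhibition of cultured human ES7 cells, read out as cell viability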
Description: SANGER: Inhibition of human ES7 cell growth in a cell viability assay.

[8] = tested on: ES8; type: functional, cell-based, Homo sapiens; settings: Homo sapiens, ES8;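 further: growth inhibition of human ES8 cells, read out with a cell viability assay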
Description: SANGER: Inhibition of human ES8 cell growth in a cell viability assay.

[9] = tested on: ETK-1; type: functional, cell-based, Homo sapiens; settings: Homo sapiens, ETK-1;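 further: growth inhibition of human ETK-1 cells, read out with a cell viability assay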
Description: SANGER: Inhibition of human ETK-1 cell growth in a cell viability assay.

[10] = tested on: EW-13; type: functional, cell-based, Homo sapiens; settings: Homo sapiens, EW-13;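 further: growth inhibition of EW-13 cells, read out with a cell viability assay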
Description: SANGER: Inhibition of human EW-13 cell growth in a cell viability assay.

[11] = tested on: EW-16; type: functional, cell-based, Homo sapiens; settings: Homo sapiens, EW-16;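 further: growth inhibition of human EW-16 cells, read out as cell viability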
Description: SANGER: Inhibition of human EW-16 cell growth in a cell viability assay.

[12] = tested on: EW-3; type: functional, cell-based, Homo sapiens; settings: Homo sapiens, EW-3;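 further: cell viability assay read-out, IC50 reflects inhibition of growth of the EW-3 cells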
Description: SANGER: Inhibition of human EW-3 cell growth in a cell viability assay.

[13] = tested on: GI-ME-N; type: functional, cell-based, Homo sapiens; settings: Homo sapiens, GI-ME-N;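 further: growth inhibition of human GI-ME-N cells, read out with a cell viability assay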
Description: SANGER: Inhibition of human GI-ME-N cell growth in a cell viability assay.

[14] = tested on: GOTO; type: functional, cell-based, Homo sapiens; settings: Homo sapiens, GOTO;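 further: growth inhibition of GOTO cells, read out by a cell viability assay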
Description: SANGER: Inhibition of human GOTO cell growth in a cell viability assay.

[15] = tested on: GR-ST; type: functional, cell-based, Homo sapiens; settings: Homo sapiens, GR-ST
Description: SANGER: Inhibition of human GR-ST cell growth in a cell viability assay.

[16] = tested on: HCC1187; type: functional, cell-based, Homo sapiens; settings: Homo sapiens, HCC1187;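 further: growth inhibition of HCC1187 cells, read out with a cell viability assay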
Description: SANGER: Inhibition of human HCC1187 cell growth in a cell viability assay.

[17] = tested on: HCE-4; type: functional, cell-based, Homo sapiens; settings: Homo sapiens, HCE-4;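 further: cell viability assay measuring inhibition of growth in the human HCE-4 cell line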
Description: SANGER: Inhibition of human HCE-4 cell growth in a cell viability assay.

[18] = tested on: HH; type: functional, cell-based, Homo sapiens; settings: Homo sapiens, HH
Description: SANGER: Inhibition of human HH cell growth in a cell viability assay.

[19] = tested on: HL-60; type: functional, cell-based, Homo sapiens; settings: Homo sapiens, HL-60;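 further: growth inhibition of human HL-60 cells, read out with a cell viability assay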
Description: SANGER: Inhibition of human HL-60 cell growth in a cell viability assay.

[20] = tested on: HT-144; type: functional, cell-based, Homo sapiens; settings: Homo sapiens, HT-144
Description: SANGER: Inhibition of human HT-144 cell growth in a cell viability assay.

[21] = tested on: IA-LM; type: functional, cell-based, Homo sapiens; settings: Homo sapiens, IA-LM;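 further: cell viability assay measuring growth inhibition of human IA-LM cells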
Description: SANGER: Inhibition of human IA-LM cell growth in a cell viability assay.

[22] = tested on: IST-SL1; type: functional, cell-based, Homo sapiens; settings: Homo sapiens, IST-SL1;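 further: growth inhibition of human IST-SL1 cells, read out with a cell viability assay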
Description: SANGER: Inhibition of human IST-SL1 cell growth in a cell viability assay.

[23] = tested on: JVM-3; type: functional, cell-based, Homo sapiens; settings: Homo sapiens, JVM-3;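 further: growth inhibition of human JVM-3 cells, read out with a cell viability assay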
Description: SANGER: Inhibition of human JVM-3 cell growth in a cell viability assay.

[24] = tested on: K5; type: functional, cell-based, Homo sapiens; settings: Homo sapiens, K5
Description: SANGER: Inhibition of human K5 cell growth in a cell viability assay.

[25] = tested on: KGN; type: functional, cell-based, Homo sapiens; settings: Homo sapiens, KGN;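 further: growth inhibition of KGN cells, read out with a cell viability assay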
Description: SANGER: Inhibition of human KGN cell growth in a cell viability assay.

[26] = tested on: KM-H2; type: functional, cell-based, Homo sapiens; settings: Homo sapiens, KM-H2;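 further: growth inhibition of KM-H2 cells, read out by a cell viability assay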
Description: SANGER: Inhibition of human KM-H2 cell growth in a cell viability assay.

[27] = tested on: LB1047-RCC; type: functional, cell-based, Homo sapiens; settings: Homo sapiens, LB1047-RCC;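 further: inhibition of cell growth, determined with a cell viability assay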
Description: SANGER: Inhibition of human LB1047-RCC cell growth in a cell viability assay.

[28] = tested on: LB2241-RCC; type: functional, cell-based, Homo sapiens; settings: Homo sapiens, LB2241-RCC;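 further: cell viability assay measuring how strongly the cultured human renal carcinoma line is prevented from growing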
Description: SANGER: Inhibition of human LB2241-RCC cell growth in a cell viability assay.

[29] = tested on: ML-2; type: functional, cell-based, Homo sapiens; settings: Homo sapiens, ML-2;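 further: growth inhibition of ML-2 cells, measured with a cell viability readout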
Description: SANGER: Inhibition of human ML-2 cell growth in a cell viability assay.

[30] = tested on: NB6; type: functional, cell-based, Homo sapiens; settings: Homo sapiens, NB6;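 further: growth inhibition of NB6 cells, read out by a cell viability assay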
Description: SANGER: Inhibition of human NB6 cell growth in a cell viability assay.

[31] = tested on: NCI-H1092; type: functional, cell-based, Homo sapiens; settings: Homo sapiens, NCI-H1092;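 further: cell growth inhibition measured with a cell viability assay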
Description: SANGER: Inhibition of human NCI-H1092 cell growth in a cell viability assay.

[32] = tested on: NCI-H1648; type: functional, cell-based, Homo sapiens; settings: Homo sapiens, NCI-H1648;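 further: cell viability assay measuring inhibition of NCI-H1648 cell growth, from the Sanger screening data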
Description: SANGER: Inhibition of human NCI-H1648 cell growth in a cell viability assay.

[33] = tested on: NCI-H1650; type: functional, cell-based, Homo sapiens; settings: Homo sapiens, NCI-H1650;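 further: growth inhibition of human NCI-H1650 cells measured by a cell viability assay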
Description: SANGER: Inhibition of human NCI-H1650 cell growth in a cell viability assay.

[34] = tested on: NCI-H209; type: functional, cell-based, Homo sapiens; settings: Homo sapiens, NCI-H209;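 further: growth inhibition of human NCI-H209 cells, measured by a cell viability assay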
Description: SANGER: Inhibition of human NCI-H209 cell growth in a cell viability assay.

[35] = tested on: NCI-H510A; type: functional, cell-based, Homo sapiens; settings: Homo sapiens, NCI-H510A;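 further: growth inhibition of NCI-H510A cells, read out with a cell viability assay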
Description: SANGER: Inhibition of human NCI-H510A cell growth in a cell viability assay.

[36] = tested on: NCI-H82; type: functional, cell-based, Homo sapiens; settings: Homo sapiens, NCI-H82;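 further: growth inhibition of NCI-H82 cells, measured with a cell viability readout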
Description: SANGER: Inhibition of human NCI-H82 cell growth in a cell viability assay.

[37] = tested on: NMC-G1; type: functional, cell-based, Homo sapiens; settings: Homo sapiens, NMC-G1;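 further: growth inhibition of the NMC-G1 cell line, measured with a cell viability read-out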
Description: SANGER: Inhibition of human NMC-G1 cell growth in a cell viability assay.

[38] = tested on: RKO; type: functional, cell-based, Homo sapiens; settings: Homo sapiens, RKO;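 further: growth inhibition of human RKO cells, read out with a cell viability assay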
Description: SANGER: Inhibition of human RKO cell growth in a cell viability assay.

[39] = tested on: SF-126; type: functional, cell-based, Homo sapiens; settings: Homo sapiens, SF-126;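 further: growth inhibition of human SF126 cells, read out with a cell viability assay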
Description: SANGER: Inhibition of human SF126 cell growth in a cell viability assay.

[40] = tested on: SHP77; type: functional, cell-based, Homo sapiens, SHP-77; settings: Homo sapiens, SHP77;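 further: growth inhibition of human SHP-77 cells measured by a cell viability assay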
Description: SANGER: Inhibition of human SHP-77 cell growth in a cell viability assay.

[41] = tested on: SK-N-DZ; type: functional, cell-based, Homo sapiens; settings: Homo sapiens, SK-N-DZ;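 further: growth inhibition of the cancer cell line, read out through a viability assay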
Description: SANGER: Inhibition of human SK-N-DZ cell growth in a cell viability assay.

[42] = tested on: SW 962; type: functional, cell-based, Homo sapiens; settings: Homo sapiens, SW 962;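 further: growth inhibition of human SW962 cells, read out by a cell viability assay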
Description: SANGER: Inhibition of human SW962 cell growth in a cell viability assay.

[43] = tested on: A388; type: functional, cell-based, Homo sapiens; settings: Homo sapiens, A388;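 further: growth inhibition of human A388 cells, read out with a cell viability assay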
Description: SANGER: Inhibition of human A388 cell growth in a cell viability assay.

[44] = tested on: A4-Fuk; type: functional, cell-based, Homo sapiens; settings: Homo sapiens, A4-Fuk;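 further: growth inhibition of A4-Fuk cells, read out by a cell viability assay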
Description: SANGER: Inhibition of human A4-Fuk cell growth in a cell viability assay.

[45] = tested on: A498; type: functional, cell-based, Homo sapiens; settings: Homo sapiens, A498;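 further: growth inhibition of human A498 cells, read out with a cell viability assay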
Description: SANGER: Inhibition of human A498 cell growth in a cell viability assay.

[46] = tested on: ALL-PO; type: functional, cell-based, Homo sapiens; settings: Homo sapiens, ALL-PO;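 further: growth inhibition of ALL-PO cells, read out by a cell viability assay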
Description: SANGER: Inhibition of human ALL-PO cell growth in a cell viability assay.

[47] = tested on: AM-38; type: functional, cell-based, Homo sapiens; settings: Homo sapiens, AM-38;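 further: growth inhibition of AM-38 cells of human origin, read out by a cell viability assay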
Description: SANGER: Inhibition of human AM-38 cell growth in a cell viability assay.

[48] = tested on: Becker; type: functional, cell-based, Homo sapiens; settings: Homo sapiens, Becker;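 further: growth inhibition of Becker cells, read out with a cell viability assay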
Description: SANGER: Inhibition of human Becker cell growth in a cell viability assay.

[49] = tested on: TE-9; type: functional, cell-based, Homo sapiens; settings: Homo sapiens, TE-9;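 further: cell growth inhibition, measured with a cell viability readout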
Description: SANGER: Inhibition of human TE-9 cell growth in a cell viability assay.

[50] = tested on: TGW; type: functional, cell-based, Homo sapiens; settings: Homo sapiens, TGW;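 further: growth inhibition of human TGW cells, read out with a cell viability assay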
Description: SANGER: Inhibition of human TGW cell growth in a cell viability assay.

CCC/C=C/C=C/C(=O)O[C@H]1/C(=C/C(=O)OC)C[C@H]2C[C@H]([C@@H](C)O)OC(=O)C[C@H](O)C[C@@H]3C[C@H](OC(C)=O)C(C)(C)[C@](O)(C[C@@H]4C/C(=C/C(=O)OC)C[C@H](/C=C/C(C)(C)[C@]1(O)O2)O4)O3 [BRYOSTATIN 1]
IC50 [1]: > 8 nM
IC50 [2]: > 8 nM
IC50 [3]: > 8 nM
IC50 [4]: > 8 nM
IC50 [5]: > 8 nM
IC50 [6]: > 8 nM
IC50 [7]: > 8 nM
IC50 [8]: > 8 nM
IC50 [9]: > 8 nM
IC50 [10]: > 8 nM
IC50 [11]: > 8 nM
IC50 [12]: > 8 nM
IC50 [13]: > 8 nM
IC50 [14]: > 8 nM
IC50 [15]: > 8 nM
IC50 [16]: > 8 nM
IC50 [17]: > 8 nM
IC50 [18]: > 8 nM
IC50 [19]: > 8 nM
IC50 [20]: > 8 nM
IC50 [21]: > 8 nM
IC50 [22]: > 8 nM
IC50 [23]: > 8 nM
IC50 [24]: > 8 nM
IC50 [25]: > 8 nM
IC50 [26]: > 8 nM
IC50 [27]: > 8 nM
IC50 [28]: > 8 nM
IC50 [29]: > 8 nM
IC50 [30]: > 8 nM
IC50 [31]: > 8 nM
IC50 [32]: > 8 nM
IC50 [33]: > 8 nM
IC50 [34]: > 8 nM
IC50 [35]: > 8 nM
IC50 [36]: > 8 nM
IC50 [37]: > 8 nM
IC50 [38]: > 8 nM
IC50 [39]: > 8 nM
IC50 [40]: > 8 nM
IC50 [41]: > 8 nM
IC50 [42]: > 8 nM
IC50 [43]: > 8 nM
IC50 [44]: > 8 nM
IC50 [45]: > 8 nM
IC50 [46]: > 8 nM
IC50 [47]: > 8 nM
IC50 [48]: > 8 nM
IC50 [49]: > 8 nM
IC50 [50]: > 8 nM

COc1cccc2c1C(=O)c1c(O)c3c(c(O)c1C2=O)C[C@@](O)(C(=O)CO)C[C@@H]3O[C@H]1C[C@H](N)[C@H](O)[C@H](C)O1 [DOXORUBICIN]
IC50 [1]: > 1020 nM
IC50 [2]: > 1020 nM
IC50 [3]: > 1020 nM
IC50 [4]: 20 nM
IC50 [5]: 325 nM
IC50 [6]: 13.7 nM
IC50 [7]: 51.4 nM
IC50 [8]: 21.1 nM
IC50 [9]: 83 nM
IC50 [10]: 9.63 nM
IC50 [11]: 1.91 nM
IC50 [12]: 280 nM
IC50 [13]: 93.3 nM
IC50 [14]: 286 nM
IC50 [15]: 255 nM
IC50 [16]: 591 nM
IC50 [17]: 18.1 nM
IC50 [18]: 241 nM
IC50 [19]: 62.6 nM
IC50 [20]: 3.51 nM
IC50 [21]: 63.5 nM
IC50 [22]: 517 nM
IC50 [23]: > 1020 nM
IC50 [24]: 96.9 nM
IC50 [25]: 6.34 nM
IC50 [26]: 90.7 nM
IC50 [27]: 36 nM
IC50 [28]: 235 nM
IC50 [29]: 135 nM
IC50 [30]: > 1020 nM
IC50 [31]: 738 nM
IC50 [32]: 132 nM
IC50 [33]: 78.6 nM
IC50 [34]: 48.7 nM
IC50 [35]: 360 nM
IC50 [36]: > 1020 nM
IC50 [37]: 139 nM
IC50 [38]: 22.3 nM
IC50 [39]: 105 nM
IC50 [40]: > 1020 nM
IC50 [41]: > 1020 nM
IC50 [42]: 69.9 nM
IC50 [43]: 28.5 nM
IC50 [44]: 162 nM
IC50 [45]: > 1020 nM
IC50 [46]: 65 nM
IC50 [47]: 282 nM
IC50 [48]: 522 nM
IC50 [49]: 257 nM
IC50 [50]: > 1020 nM

Nc1ccn([C@@H]2O[C@H](CO)[C@@H](O)C2(F)F)c(=O)n1 [GEMCITABINE]
IC50 [1]: > 1020 nM
IC50 [2]: > 1020 nM
IC50 [3]: > 1020 nM
IC50 [4]: 196 nM
IC50 [5]: 160 nM
IC50 [6]: < 4 nM
IC50 [7]: 19.8 nM
IC50 [8]: < 4 nM
IC50 [9]: 8.08 nM
IC50 [10]: < 4 nM
IC50 [11]: < 4 nM
IC50 [12]: 580 nM
IC50 [13]: > 1020 nM
IC50 [14]: > 1020 nM
IC50 [15]: < 4 nM
IC50 [16]: > 1020 nM
IC50 [17]: < 4 nM
IC50 [18]: 35.1 nM
IC50 [19]: 15.7 nM
IC50 [20]: 4.92 nM
IC50 [21]: 5.91 nM
IC50 [22]: 197 nM
IC50 [23]: > 1020 nM
IC50 [24]: 683 nM
IC50 [25]: < 4 nM
IC50 [26]: 261 nM
IC50 [27]: < 4 nM
IC50 [28]: < 4 nM
IC50 [29]: 25.7 nM
IC50 [30]: > 1020 nM
IC50 [31]: > 1020 nM
IC50 [32]: 511 nM
IC50 [33]: 25.4 nM
IC50 [34]: 52.1 nM
IC50 [35]: 33.3 nM
IC50 [36]: 373 nM
IC50 [37]: 8.76 nM
IC50 [38]: < 4 nM
IC50 [39]: 7.05 nM
IC50 [40]: > 1020 nM
IC50 [41]: 86.6 nM
IC50 [42]: 52.4 nM
IC50 [43]: 1.36 nM
IC50 [44]: < 4 nM
IC50 [45]: > 1020 nM
IC50 [46]: < 4 nM
IC50 [47]: < 4 nM
IC50 [48]: 267 nM
IC50 [49]: 190 nM
IC50 [50]: 200 nM
